Assay results: the supplement of paper PMC10307832

How the values were obtained:
Test in all cases: relative viability (nuclei count vs DMSO), 5 days (fraction); higher = more cells survive
Bortezomib + Foretinib = compound: CC(C)C[C@H](NC(=O)[C@H](Cc1ccccc1)NC(=O)c1cnccn1)B(O)O [Bortezomib] + COc1cc2c(Oc3ccc(NC(=O)C4(C(=O)Nc5ccc(F)cc5)CC4)cc3F)ccnc2cc1OCCCN1CCOCC1 [Foretinib] (partner 0.25 µM)
How it was run: (§1)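 The day after seeding in 1536-well plates, lung cancer cell lines were treated by pin tool with a single drug, or with a fixed anchor-drug dose together with five library-drug doses (not always all listed) in √10 steps. After 5 days, a combined fix-and-stain solution (final 0.05% Triton X-100, 1% formaldehyde, 1 ug/ml Hoechst) was added. Nuclei counted on 4× images gave relative viability as treated counts over vehicle counts, reported as the median of duplicate plates.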

[1] = compound: CC1=CC(=NN1)NC2=CC(=NC(=N2)/C=C/C3=CC=CC=C3)N4CCN(CC4)C + COc1cc2c(Oc3ccc(NC(=O)C4(C(=O)Nc5ccc(F)cc5)CC4)cc3F)ccnc2cc1OCCCN1CCOCC1 [Foretinib] (partner 0.25 µM)
How it was run: as §1

[2] = compound: CC1=CC(=NN1)NC2=CC(=NC(=N2)/C=C/C3=CC=CC=C3)N4CCN(CC4)C + CC1(C)CCC(c2ccc(Cl)cc2)=C(CN2CCN(c3ccc(C(=O)NS(=O)(=O)c4ccc(N[C@H](CCN5CCOCC5)CSc5ccccc5)c(S(=O)(=O)C(F)(F)F)c4)cc3)CC2)C1 [Navitoclax] (partner 0.5 µM)
How it was run: as §1

Obatoclax + Vorinostat = compound: COC1=CC(c2cc3ccccc3[nH]2)=N/C1=C\c1[nH]c(C)cc1C [Obatoclax] + O=C(CCCCCCC(=O)Nc1ccccc1)NO [Vorinostat] (partner 1 µM)
How it was run: as §1

| Cell Line | relative viability (Bortezomib + Foretinib; first compound 0.0002 µM) | relative viability (Bortezomib + Foretinib; first compound 0.000632 µM) | relative viability (Bortezomib + Foretinib; first compound 0.002 µM) | relative viability (Bortezomib + Foretinib; first compound 0.006325 µM) | relative viability (Bortezomib + Foretinib; first compound 0.02 µM) | relative viability ([1]; first compound 0.08 µM) | relative viability ([1]; first compound 0.253 µM) | relative viability ([1]; first compound 0.8 µM) | relative viability ([1]; first compound 2.53 µM) | relative viability ([1]; first compound 8 µM) | relative viability ([2]; first compound 0.08 µM) | relative viability ([2]; first compound 0.253 µM) | relative viability ([2]; first compound 0.8 µM) | relative viability ([2]; first compound 2.53 µM) | relative viability ([2]; first compound 8 µM) | relative viability (Obatoclax + Vorinostat; first compound 0.01 µM) | relative viability (Obatoclax + Vorinostat; first compound 0.03162 µM) | relative viability (Obatoclax + Vorinostat; first compound 0.1 µM) | relative viability (Obatoclax + Vorinostat; first compound 0.3162 µM) | relative viability (Obatoclax + Vorinostat; first compound 1 µM) |
| --- | --- | --- | --- | --- | --- | --- | --- | --- | --- | --- | --- | --- | --- | --- | --- | --- | --- | --- | --- | --- |
| 201T | 1.05 | 1.11 | 0.793 | 0.297 | 0.172 | 1.13 | 1.32 | 1.04 | 1.02 | 0.206 | 1.2 | 1.21 | 1.19 | 1.13 | 1.12 | 0.954 | 0.834 | 0.968 | 0.959 | 1.06 |
| A549 | 0.87 | 1.01 | 0.986 | 0.0286 | 0.0217 | 1.03 | 0.914 | 0.616 | 0.0324 | 0.0167 | 1.1 | 1.19 | 0.985 | 0.0304 | 0.0283 |  |  |  |  |  |
| A-427 | 1.02 | 1.1 | 0.932 | 0.483 | 0.122 | 0.993 | 1.06 | 0.993 | 0.586 | 0.142 | 1.04 | 1.02 | 0.991 | 0.627 | 0.164 | 0.839 | 0.836 | 0.741 | 0.835 | 0.664 |
| ABC-1 | 0.917 | 0.874 | 0.284 | 0.229 | 0.204 | 1.01 | 1.13 | 0.956 | 0.195 | 0.228 |  |  |  |  |  | 1.25 | 1.08 | 0.869 | 1.17 | 0.933 |
| BEN | 0.494 | 0.866 | 0.769 | 0.572 | 0.356 | 0.639 | 0.675 | 0.715 | 0.377 | 0.182 | 0.0566 | 0.0746 | 0.188 | 0.0803 | 0.0617 | 0.594 | 0.486 | 0.521 | 0.556 | 0.621 |
| CAL-12T | 1.18 | 1.07 | 1.08 | 0.743 | 0.154 | 1.09 | 1.17 | 0.908 | 0.293 | 0.162 | 0.918 | 1.31 | 1.16 | 0.424 | 0.151 | 0.847 | 0.883 | 1.05 | 0.521 | 0.142 |
| COR-L23 | 0.934 | 0.931 | 0.874 | 0.0924 | 0.0681 | 0.967 | 1.01 | 0.904 | 0.211 | 0.107 | 1.02 | 1.07 | 0.884 | 0.302 | 0.0578 | 0.562 | 0.507 | 0.42 | 0.166 | 0.18 |
| COR-L 105 | 0.997 | 1 | 0.995 | 0.262 | 0.255 | 0.841 | 1.47 | 1.02 | 0.334 | 0.215 | 0.739 | 0.976 | 0.727 | 0.4 | 0.206 | 0.837 | 0.905 | 0.885 | 0.725 | 0.445 |
| Calu-6 | 0.803 | 0.856 | 0.839 | 0.0564 | 0.0507 | 0.879 | 0.942 | 0.519 | 0.167 | 0.0898 | 0.765 | 0.623 | 0.523 | 0.0678 | 0.0602 |  |  |  |  |  |
| ChaGo-K-1 | 0.837 | 0.822 | 0.992 | 0.245 | 0.185 | 0.952 | 0.915 | 0.79 | 0.353 | 0.186 | 0.893 | 1.12 | 1.24 | 0.298 | 0.272 | 0.756 | 0.587 | 0.637 | 0.742 | 0.795 |
| EBC-1 | 0.11 | 0.106 | 0.0957 | 0.0676 | 0.0605 | 0.107 | 0.115 | 0.103 | 0.106 | 0.0799 | 0.387 | 0.396 | 0.285 | 0.154 | 0.147 |  |  |  |  |  |
| EKVX | 0.847 | 0.843 | 0.897 | 0.872 | 0.21 | 0.761 | 0.786 | 1.14 | 0.504 | 0.213 | 0.946 | 1.24 | 1.03 | 0.755 | 0.131 | 0.747 | 0.592 | 0.765 | 0.725 | 0.649 |
| EMC-BAC-2 | 0.993 | 1.03 | 1.13 | 0.279 | 0.203 | 0.957 | 1.04 | 0.936 | 0.534 | 0.234 | 1.1 | 1.11 | 1.07 | 0.719 | 0.266 | 0.437 | 0.358 |  | 0.446 | 0.405 |
| EPLC-272H | 0.7 | 0.506 | 0.148 | 0.0867 | 0.0676 | 0.639 | 0.708 | 0.4 | 0.171 | 0.0935 | 1.07 | 1.32 | 0.987 | 0.598 | 0.339 | 0.567 | 0.561 | 0.399 | 0.175 | 0.176 |
| H3255 | 0.763 | 0.994 | 0.935 | 0.638 | 0.283 | 0.799 | 1.1 | 0.822 | 0.756 | 0.631 | 0.518 | 0.61 | 0.517 | 0.43 | 0.0832 | 0.975 | 0.719 |  | 0.823 | 0.858 |
| HARA | 0.851 | 0.866 | 0.928 | 0.0716 | 0.0683 | 0.932 | 0.909 | 0.794 | 0.098 | 0.0593 | 1.17 | 1.16 | 1.13 | 0.982 | 0.238 | 0.553 | 0.392 | 0.566 | 0.441 | 0.605 |
| HCC-15 | 0.933 | 1.09 | 0.628 | 0.0908 | 0.0905 | 1.06 | 1.11 | 0.839 | 0.196 | 0.0908 | 0.67 | 0.731 | 0.612 | 0.409 | 0.118 | 0.875 | 0.815 | 0.83 | 0.747 | 0.786 |
